# In patent publication US10500217B2 (LESLIE RAY MATTHEWS, M.D., LLC, priority 2018, dated 2019):
# Test system: Glial cells (DBTRG-05MG; CRL-2020)
# Assay: Lactate dehydrogenase (LDH) cell death assay: percentage cell survival of glia cells with or without H2O2 exposure
# Assay type: cell-based, human
# Details: for Percentage Cell Survival (% ± SD), H202 Given Last (30 min before H202 given/pre-treatment) / Percentage Cell Survival (% ± SD), H202 (added 30 min after): H2O2 0.25M about 30 min after treatment; for Percentage Cell Survival (% ± SD), H202 Given 1st (30 min after H202 Given, mimics acute injury) / Percentage Cell Survival (% ± SD), H202 (added 30 min before): H2O2 0.25M about 30 min before treatment; for Percentage Cell Survival (% ± SD), Control: control (PBS) instead of H2O2; for Percentage Cell Survival (% ± SD), H202 given (30 min after treatment with Vitamin D) / Percentage Cell Survival (% ± SD), H202 Given (30 min before treatment with Vitamin D) / Percentage Cell Survival (% ± SD), Control (PBS): Table 3; for Percentage Cell Survival (% ± SD), H202 given (30 min after treatment with Vitamin D): H2O2 0.25M 30 min after treatment; for Percentage Cell Survival (% ± SD), H202 Given (30 min before treatment with Vitamin D): H2O2 0.25M 30 min before treatment; for Percentage Cell Survival (% ± SD), Control (PBS): no H2O2
# Experimental: Glial cells were purchased from ATCC (DBTRG-05MG; CRL-2020) and were derived from the brain of a […] with glioblastoma. […] Glial cells were subcultured at a ratio of about 1:4 every 2 to 3 days. Cell death was measured by the CytoTox 96 Non-Radioactive Cytotoxicity Assay according to the manufacturer's instructions (Promega, Madison, Wis.). Culture medium (500 μl) was recovered from and incubated for about 30 min in the dark with a buffer containing NAD+, lactate, and tetrazolium. Lactate Dehydrogenase (LDH) converts lactate to pyruvate, generating NADH which reduces tetrazolium (yellow) to formazan (red), which is detected by […] (490 nm). LDH release, a marker for cell death, was expressed as a percentage of the LDH in the medium over the total LDH. Data was analyzed using a two-tailed t-test after applying ANOVA to the data. Differences were considered significant when p<0.01. Glia cells (10^6 cells) were plated in triplicates in 6-well plates. […] Percentage cell survival was calculated about 24 hours later using LDH assay. […] Glia cells (10^6 cells) were plated in triplicates in 6-well plates. […] Percentage cell survival was calculated about 24 hours later using LDH assay. […] Glia cells (10^6 cells) were plated in triplicates in 6-well plates. […] Percentage cell survival was calculated about 24 hours later using LDH assay.
# [1] = Table 1, survival about 24 h later, 3 experiments
# [2] = Table 2, Vitamin D3 (1/5), Hsp72 (1/5), Glutathione 200 mg/ml, 24 h, 4 experiments
compound,measurement,setting,value
"C=C1CC[C@H](O)C/C1=C/C=C1\CCC[C@]2(C)[C@@H]([C@H](C)CCCC(C)C)CC[C@@H]12 [Vitamin D3, Cholecalciferol]","Percentage Cell Survival (% ± SD), H202 Given Last (30 min before H202 given/pre-treatment)",[1],28.56 ± 8.9 %
same,"Percentage Cell Survival (% ± SD), H202 Given 1st (30 min after H202 Given, mimics acute injury)",[1],15.27 ± 7.4 %
same,"Percentage Cell Survival (% ± SD), Control",[1],94.64 ± 4.6%
same,"Percentage Cell Survival (% ± SD), H202 (added 30 min after)",[2],12.68 ± 3.5 %
same,"Percentage Cell Survival (% ± SD), H202 (added 30 min before)",[2],10.36 ± 2.3 %
same,"Percentage Cell Survival (% ± SD), Control",[2],97.28 ± 4.3%
same,"Percentage Cell Survival (% ± SD), H202 given (30 min after treatment with Vitamin D)","Vitamin D3 5 ng/m1, 24 h",9.75 ± 3.6%
same,"Percentage Cell Survival (% ± SD), H202 Given (30 min before treatment with Vitamin D)","Vitamin D3 5 ng/m1, 24 h",6.22 ± 2.8%
same,"Percentage Cell Survival (% ± SD), Control (PBS)","Vitamin D3 5 ng/m1, 24 h",96.89 ± 4.5%
same,"Percentage Cell Survival (% ± SD), H202 given (30 min after treatment with Vitamin D)","Vitamin D3 25 ng/m1, 24 h",13.09 ± 2.9 %
same,"Percentage Cell Survival (% ± SD), H202 Given (30 min before treatment with Vitamin D)","Vitamin D3 25 ng/m1, 24 h",10.18 ± 2.2 %
same,"Percentage Cell Survival (% ± SD), Control (PBS)","Vitamin D3 25 ng/m1, 24 h",98.56 ± 7.9%
same,"Percentage Cell Survival (% ± SD), H202 given (30 min after treatment with Vitamin D)","Vitamin D3 50 ng/m1, 24 h",28.56 ± 3.9 %
same,"Percentage Cell Survival (% ± SD), H202 Given (30 min before treatment with Vitamin D)","Vitamin D3 50 ng/m1, 24 h",15.27 ± 4.4 %
same,"Percentage Cell Survival (% ± SD), Control (PBS)","Vitamin D3 50 ng/m1, 24 h",91.18 ± 6.8%
same,"Percentage Cell Survival (% ± SD), H202 Given (30 min before treatment with Vitamin D)","Vitamin D3 75 ng/m1, 24 h",22.94 ± 3.8 %
same,"Percentage Cell Survival (% ± SD), Control (PBS)","Vitamin D3 75 ng/m1, 24 h",95.82 ± 6.2%
same,"Percentage Cell Survival (% ± SD), H202 given (30 min after treatment with Vitamin D)","Vitamin D3 100 ng/m1, 24 h",60.11 ± 7.2 %
same,"Percentage Cell Survival (% ± SD), H202 Given (30 min before treatment with Vitamin D)","Vitamin D3 100 ng/m1, 24 h",28.99 ± 6.9 %
same,"Percentage Cell Survival (% ± SD), Control (PBS)","Vitamin D3 100 ng/m1, 24 h",97.41 ± 8.4%
Hsp72: Endotoxin-free recombinant Hsp72 produced using the baculovirus expression vector system and expressed in insect cells,"Percentage Cell Survival (% ± SD), H202 Given Last (30 min before H202 given/pre-treatment)",[1],48.54 ± 6.3 %
same,"Percentage Cell Survival (% ± SD), H202 Given 1st (30 min after H202 Given, mimics acute injury)",[1],31.85 ± 9.2 %
same,"Percentage Cell Survival (% ± SD), Control",[1],96.88 ± 3.8%
same,"Percentage Cell Survival (% ± SD), H202 (added 30 min after)",[2],32.68 ± 7.5 %
same,"Percentage Cell Survival (% ± SD), H202 (added 30 min before)",[2],21.57 ± 5.4 %
same,"Percentage Cell Survival (% ± SD), Control",[2],95.48 ± 5.1%
